Results taken from US8853213B2, “Bicyclic compound for modulating G protein-coupled receptors” (Hanmi Pharm. Co., Ltd, priority 2011, dated 2014).

molecular target: T1, GPR119 (Homo sapiens, UniProt Q8TDV5); assay: Controlling Effect of GPR119 in CRE-bla CHO-K1 Cells (EC50); format: cell-based; conditions: GPR119 CRE-bla CHO-K1 cell line, 5 hr incubation with compound, β-lactamase LiveBLAzer-FRET B/G readout; read-out: controlling effect against GPR119 in CRE-bla CHO-K1 cell line (EC50)
T1 construct: host or cells: CHO-K1 (CRE-bla reporter, doxycycline-induced)
T1 sequence (Q8TDV5 1-335): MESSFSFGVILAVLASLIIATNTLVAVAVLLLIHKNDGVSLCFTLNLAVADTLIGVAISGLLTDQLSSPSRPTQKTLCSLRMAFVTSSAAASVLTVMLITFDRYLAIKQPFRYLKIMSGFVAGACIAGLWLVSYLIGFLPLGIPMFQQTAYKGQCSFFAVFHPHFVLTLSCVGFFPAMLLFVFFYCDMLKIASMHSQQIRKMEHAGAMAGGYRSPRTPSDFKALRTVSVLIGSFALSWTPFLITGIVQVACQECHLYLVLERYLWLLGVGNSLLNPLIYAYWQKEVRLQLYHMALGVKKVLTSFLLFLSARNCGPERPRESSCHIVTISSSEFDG
Outline: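 CHO-K1 cells carrying GPR119 and a CRE-β-lactamase reporter, induced with doxycycline for 16-20 h at 37° C, then exposed to compounds in 10-fold dilutions for 5 h. CCF4-AM FRET substrate added for 2 h at room temperature; blue/green fluorescence (409 ex, […]) read and EC50 derived.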

**Q.** Which EC50 does the source give for `CS(=O)(=O)c1ccc(-c2csc3c(OC4CCN(c5nc(CC6CC6)no5)CC4)ncnc23)c(F)c1` [Example 69, 7-(2-fluoro-4-methanesulfonyl-phenyl)-4-[1-(3-cyclopropylmethyl-[1,2,4]oxadiazol-5-yl)piperidin-4-yloxy]thieno[3,2-d]pyrimidine] here?
**A.** The EC50 was less than 100 nM.

**Q.** With `CS(=O)(=O)c1ccc(-c2csc3c(OC4CCN(c5nc(C6CCCC6)no5)CC4)ncnc23)c(F)c1` [Example 70, 7-(2-fluoro-4-methanesulfonyl-phenyl)-4-[1-(3-cyclopentyl-[1,2,4]oxadiazol-5-yl)piperidin-4-yloxy]thieno[3,2-d]pyrimidine] as the molecule, how does the EC50 read?
**A.** The EC50 was less than 100 nM.

**Q.** How did the EC50 turn out when `CC(C)(C)c1noc(N2CCC(Oc3ncnc4c(-c5ccc(S(C)(=O)=O)cc5F)csc34)CC2)n1` [Example 71, 7-(2-fluoro-4-methanesulfonyl-phenyl)-4-[1-(3-t-butyl-[1,2,4]oxadiazol-5-yl)piperidin-4-yloxy]thieno[3,2-d]pyrimidine] was run?
**A.** The EC50 was less than 100 nM.

**Q.** With `CC(C)(C)OC(=O)N1CCC(Oc2ncnc3c(-c4ccc(S(C)(=O)=O)cc4F)csc23)CC1` [Example 72, tert-butyl 4-(7-(2-fluoro-4-methanesulfonyl-phenyl)thieno[3,2-d]pyrimidin-4-yloxy)piperidin-1-carboxylate] as the molecule, how does the EC50 read?
**A.** The EC50 was less than 100 nM.

**Q.** For `CC(C)OC(=O)N1CCC(Oc2ncnc3c(-c4ccc(S(C)(=O)=O)cc4F)csc23)CC1` [Example 73, isopropyl 4-(7-(2-fluoro-4-methanesulfonyl-phenyl)thieno[3,2-d]pyrimidin-4-yloxy)piperidin-1-carboxylate], which EC50 is on record?
**A.** The EC50 was less than 100 nM.

**Q.** For `CN1CCC(Oc2ncnc3c(-c4ccc(S(C)(=O)=O)cc4F)csc23)CC1` [Example 74, 7-(2-fluoro-4-methanesulfonyl-phenyl)-4-[1-methylpiperidin-4-yloxy]thieno[3,2-d]pyrimidine], which EC50 is on record?
**A.** The EC50 was greater than 1000 nM.

**Q.** How did the EC50 turn out when `CS(=O)(=O)c1ccc(-c2csc3c(OC4CCN(C#N)CC4)ncnc23)c(F)c1` [Example 75, 4-(7-(2-fluoro-4-methanesulfonyl-phenyl)thieno[3,2-d]pyrimidin-4-yloxy)piperidin-1-carbonitrile] was run?
**A.** Its EC50 is 100 to 1000 nM.

**Q.** With `CS(=O)(=O)c1ccc(-c2csc3c(OC4CCNCC4)ncnc23)c(F)c1` [Example 76, 7-(2-fluoro-4-methanesulfonyl-phenyl)-4-[piperidin-4-yloxy]thieno[3,2-d]pyrimidine] as the molecule, how does the EC50 read?
**A.** Its EC50 is greater than 1000 nM.

**Q.** With `CS(=O)(=O)c1ccc(-c2csc3c(OC4CCN(c5nc6ccccc6o5)CC4)ncnc23)c(F)c1` [Example 77, 2-(4-(7-(2-fluoro-4-methanesulfonyl-phenyl)thieno[3,2-d]pyrimidin-4-yloxy)piperidin-1-yl)benzo[d]oxazole] as the molecule, how does the EC50 read?
**A.** The EC50 was less than 100 nM.

**Q.** For `CC(C)Cc1noc(N2CCC(Oc3ncnc4c(-c5ccc(S(C)(=O)=O)cc5F)csc34)CC2)n1` [Example 78, 7-(2-fluoro-4-methanesulfonyl-phenyl)-4-[1-(3-isobutyl-[1,2,4]oxadiazol-5-yl)piperidin-4-yloxy]thieno[3,2-d]pyrimidine], which EC50 is on record?
**A.** Its EC50 is less than 100 nM.

**Q.** For `CS(=O)(=O)c1ccc(-c2csc3c(OC4CCN(c5nc(C6CCCCC6)no5)CC4)ncnc23)c(F)c1` [Example 79, 7-(2-fluoro-4-methanesulfonyl-phenyl)-4-[1-(3-cyclohexyl-[1,2,4]oxadiazol-5-yl)piperidin-4-yloxy]thieno[3,2-d]pyrimidine], which EC50 is on record?
**A.** Its EC50 is less than 100 nM.

**Q.** With `CS(=O)(=O)c1ccc(-c2csc3c(OC4CCN(c5nc(C6CC7CCC6C7)no5)CC4)ncnc23)c(F)c1` (stereo not shown) [Example 80, 7-(2-fluoro-4-methanesulfonyl-phenyl)-4-[1-(3-bicyclo[2,2,1]heptan-2-yl[1,2,4]oxadiazol-5-yl)piperidin-4-yloxy]thieno[3,2-d]pyrimidine] as the molecule, how does the EC50 read?
**A.** Its EC50 is less than 100 nM.

**Q.** For `CCc1cnc(N2CCC(Oc3ncnc4c(-c5ccc(S(C)(=O)=O)cc5F)csc34)CC2)nc1` [Example 81, 4-[1-(5-ethylpyrimidin-2-yl)-piperidin-4-yloxy]-7-(2-fluoro-4-methanesulfonyl-phenyl)-thieno[3,2-d]pyrimidine], which EC50 is on record?
**A.** The EC50 was less than 100 nM.

**Q.** `CCCc1cnc(N2CCC(Oc3ncnc4c(-c5ccc(S(C)(=O)=O)cc5F)csc34)CC2)nc1` [Example 83, 7-(2-fluoro-4-methanesulfonyl-phenyl)-4-[1-(5-propyl-pyrimidin-2-yl)-piperidin-4-yloxy]-thieno[3,2-d]pyrimidine] was tested. Which EC50 did it give?
**A.** Its EC50 is less than 100 nM.

**Q.** Which EC50 does the source give for `CS(=O)(=O)c1ccc(-c2csc3c(OC4CCN(c5ncc(C6CC6)cn5)CC4)ncnc23)c(F)c1` [Example 84, 7-(2-fluoro-4-methanesulfonyl-phenyl)-4-[1-(5-cyclopropyl-pyrimidin-2-yl)-piperidin-4-yloxy]-thieno[3,2-d]pyrimidine] here?
**A.** The EC50 was less than 100 nM.

**Q.** For `CS(=O)(=O)c1ccc(-c2csc3c(OC4CCN(c5ncccn5)CC4)ncnc23)c(F)c1` [Example 85, 7-(2-fluoro-4-methanesulfonyl-phenyl)-4-(1-pyrimidin-2-yl-piperidin-4-yloxy)-thieno[3,2-d]pyrimidine], which EC50 is on record?
**A.** Its EC50 is less than 100 nM.

**Q.** How did the EC50 turn out when `CC(C)c1ccc(-c2cnc(N3CCC(Oc4ncnc5c(-c6ccc(S(C)(=O)=O)cc6F)csc45)CC3)nc2)cc1` [Example 86, 7-(2-fluoro-4-methanesulfonyl-phenyl)-4-{1-[5-(4-isopropylphenyl)-pyrimidin-2-yl)-piperidin-4-yloxy]-thieno[3,2-d]pyrimidine] was run?
**A.** The EC50 was less than 100 nM.

**Q.** For `CC(=O)N1CCC(Oc2ncnc3c(-c4ccc(S(C)(=O)=O)cc4F)csc23)CC1` [Example 87, 1-(4-(7-(2-fluoro-4-methanesulfonyl-phenyl)thieno[3,2-d]pyrimidin-4-yloxy)piperidin-1-yl)ethanone], which EC50 is on record?
**A.** Its EC50 is greater than 1000 nM.

**Q.** How did the EC50 turn out when `CC(C)(C)C(=O)N1CCC(Oc2ncnc3c(-c4ccc(S(C)(=O)=O)cc4F)csc23)CC1` [Example 88, 1-(4-(7-(2-fluoro-4-methanesulfonyl-phenyl)thieno[3,2-d]pyrimidin-4-yloxy)piperidin-1-yl)-2,2-dimethylpropan-1-one] was run?
**A.** The EC50 was less than 100 nM.

**Q.** Which EC50 does the source give for `CS(=O)(=O)c1ccc(-c2csc3c(OC4CCN(C(=O)c5ccccc5)CC4)ncnc23)c(F)c1` [Example 89, {4-[7-(2-fluoro-4-methanesulfonyl-phenyl)-thieno[3,2-d]pyrimidin-4-yloxy]-piperidin-1-yl}phenyl-methanone] here?
**A.** The EC50 was less than 100 nM.

**Q.** How did the EC50 turn out when `CS(=O)(=O)c1ccc(-c2csc3c(OC4CCN(C(=O)c5cccnc5)CC4)ncnc23)c(F)c1` [Example 90] was run?
**A.** The EC50 was greater than 1000 nM.

**Q.** How did the EC50 turn out when `CS(=O)(=O)c1ccc(-c2csc3c(OC4CCN(Cc5ccccc5)CC4)ncnc23)c(F)c1` [Example 91, 4-(1-benzylpiperidin-4-yloxy]-7-(2-fluoro-4-methanesulfonyl-phenyl)thieno[3,2-d]pyrimidine] was run?
**A.** The EC50 was less than 100 nM.

**Q.** For `CC(C)c1csc(N2CCC(Oc3ncnc4c(-c5ccc(S(C)(=O)=O)cc5F)csc34)CC2)n1` [Example 93, 7-(2-fluoro-4-methanesulfonyl-phenyl)-4-[1-(4-isopropyl-thiazo-2-yl)piperidin-4-yloxy]-thieno[3,2-d]pyrimidine], which EC50 is on record?
**A.** Its EC50 is greater than 1000 nM.

**Q.** How did the EC50 turn out when `CC(C)n1nnc(N2CCC(Oc3ncnc4c(-c5ccc(S(C)(=O)=O)cc5F)csc34)CC2)n1` [Example 94, 7-(2-fluoro-4-methanesulfonyl-phenyl)-4-(1-(2-isopropyl-2H-tetrazol-5-yl)piperidin-4-yloxy)thieno[3,2-d]pyrimidine] was run?
**A.** Its EC50 is less than 100 nM.

**Q.** With `CC(C)c1nc(N2CCC(Oc3ncnc4c(-c5ccc(S(C)(=O)=O)cc5F)csc34)CC2)no1` [Example 95, 7-(2-fluoro-4-methanesulfonyl-phenyl)-4[1-(5-isopropyl-[1,2,4]oxadiazol-3-yl)-piperidin-4-yloxy]-thieno[3,2d]pyrimidine] as the molecule, how does the EC50 read?
**A.** Its EC50 is less than 100 nM.

**Q.** With `COc1ccc(-c2csc3c(OC4CCN(c5nc(C(C)C)no5)CC4)ncnc23)c(Cl)c1` [Example 96, 5-(4-(7-(2-chloro-4-methoxyphenyl)thieno[3,2-d]pyrimidin-4-yloxy)piperidin-1-yl)-3-isopropyl-1,2,4-oxadiazole] as the molecule, how does the EC50 read?
**A.** The EC50 was less than 100 nM.

**Q.** How did the EC50 turn out when `CC(C)c1noc(N2CCC(Oc3ncnc4c(-c5ccc(F)c(F)c5F)csc34)CC2)n1` [Example 97, 4-[1-(3-isopropyl-[1,2,4]oxadiazol-5-yl)-piperidin-4-yloxy]-7-(2,3,4-trifluoro-phenyl)-thieno[3,2-d]pyrimidine] was run?
**A.** Its EC50 is greater than 1000 nM.

**Q.** How did the EC50 turn out when `COc1ccc(-c2csc3c(OC4CCN(c5nc(C(C)C)no5)CC4)ncnc23)cc1F` [Example 98, 7-(3-fluoro-4-methoxy-phenyl)-4-[1-(3-isopropyl-[1,2,4]oxadiazol-5-yl)-piperidin-4-yloxy]-thieno[3,2-d]pyrimidine] was run?
**A.** Its EC50 is greater than 1000 nM.

**Q.** With `CC(C)c1noc(N2CCC(Oc3ncnc4c(-c5ccc(OC(F)(F)F)cc5)csc34)CC2)n1` [Example 99, 4-[1-(3-isopropyl-[1,2,4]oxadiazol-5-yl)-piperidin-4-yloxy]-7-(4-trifluoromethoxy-phenyl)-thieno[3,2-d]pyrimidine] as the molecule, how does the EC50 read?
**A.** The EC50 was 100 to 1000 nM.

**Q.** How did the EC50 turn out when `CC(C)c1noc(N2CCC(Oc3ncnc4c(-c5ccc(SC(F)(F)F)cc5)csc34)CC2)n1` [Example 100, 4-[1-(3-isopropyl-[1,2,4]oxadiazol-5-yl)-piperidin-4-yloxy]-7-(4-trifluoromethylsulfanyl-phenyl)-thieno[3,2-d]pyrimidine] was run?
**A.** Its EC50 is greater than 1000 nM.

**Q.** For `CC(C)c1noc(N2CCC(Oc3ncnc4c(-c5ccc(S(=O)(=O)C(F)(F)F)cc5F)csc34)CC2)n1` [Example 101, 7-(2-fluoro-4-trifluoro(methanesulfonyl)phenyl)-4-[1-(3-isopropyl-[1,2,4]oxadiazol-5-yl)-piperidin-4-yloxy]-thieno[3,2-d]pyrimidine], which EC50 is on record?
**A.** Its EC50 is greater than 1000 nM.
